According to patent publication US20090098189A1, “AZAINDOLES AS INHIBITORS OF SOLUBLE ADENYLATE CYCLASE” (priority 2007, published 2009):
pIC50: −log10 of the molar value.

Columns and labels:
[1] = target: soluble, sperm-specific adenylate cyclase (sAC) (Homo sapiens, UniProt Q96PN6); assay: sAC assay (HTRF cAMP detection); type: biochemical; conditions: read-out: IC50 (inhibition of soluble adenylate cyclase)
From the text: In a suitable buffer system, soluble, sperm-specific adenylate cyclase catalyzes the conversion of adenosine triphosphate (ATP) to cyclic adenosine monophosphate (cAMP) and pyrophosphate. Free cAMP generated in this way is then used in a competitive detection technique, in which the binding of a europium cryptate Eu[K]-labeled anti-cAMP antibody (anti-cAMP-Eu[K]-AB) to a modified allophycocyanine-1 molecule labeled with cAMP molecules (cAMP-XL665) is prevented. In the absence of exogenous cAMP, after excitation at 335 nm there is Fluorescence Resonance Energy Transfer (FRET) between the anti-cAMP-Eu[K]-AB (FRET donor) and the cAMP-XL665 molecule (FRET acceptor). This process is quantified, time-resolved, on the basis of the emission of the FRET acceptor XL665 (665 nm and 620 nm). A decrease in signal (measured as Well Ratio; calculated from the Formula: [(E665 nm/E620 nm)×10000]) can be attributed to the presence of cAMP and thus to the activity of sAC. First, 1.5 μl of the test substance (in 30% DMSO) is placed in each well of a 384-well test plate (polystyrene; 384, NV), and in the solvent controls only 30% DMSO. Then 10 μl of a dilute sAC enzyme solution is applied (enzyme stock solution in 300 mM NaCl, 10% glycerol; pH 7.6; enzyme intermediate and final dilution a) 1:10 and b) 1:2000 in each case in: 1.0 mM MnCl2; 0.2% BSA; 50 mM Tris pH 7.5 in H2O). The enzyme reaction is started by adding 5 μl of the ATP substrate solution (200 μM ATP in H2O) and after incubation (25 min at room temperature) stopped by adding 5 μl of the stop solution (200 μM EDTA in PBS). Finally the whole reaction is adjusted to a total volume of 91.5 μl by adding 70 μl PBS.
Next, 8 μl of detection solution 1 is placed in a well of the 384-well measuring plate (measuring plate: polystyrene; 384, SV—black; detection solution 1: 50 μl cAMP-XL665; 950 μl reconstituted buffer; 2200 μl PBS; cAMP-XL665: prepared by adding 5 ml H2O to the lyophilized product according to the instructions in Cis bio Kit: #62AMPPEC; storage: in aliquots at −80° C.). Next, 3 μl from the 91.5 μl is added to the corresponding well of the test plate. Finally, 8 μl of detection solution 2 is added (detection solution 2: 50 μl anti-cAMP-Eu[K]-AB; 950 μl reconstituted buffer; 2200 μl PBS; anti-cAMP-Eu[K]-AB: prepared according to the instructions in Cis bio Kit: #62AMPPEC; storage: in aliquots at −80° C.).
After further incubation for 90 min at room temperature, the HTRF result is measured either on the Packard Discovery or with the RubiStar HTRF measuring instrument (delay: 50 μs; integration time: 400 μs).

[2] = known from the literature; cited from earlier work

Chain of soluble, sperm-specific adenylate cyclase (sAC) (Q96PN6 whole entry): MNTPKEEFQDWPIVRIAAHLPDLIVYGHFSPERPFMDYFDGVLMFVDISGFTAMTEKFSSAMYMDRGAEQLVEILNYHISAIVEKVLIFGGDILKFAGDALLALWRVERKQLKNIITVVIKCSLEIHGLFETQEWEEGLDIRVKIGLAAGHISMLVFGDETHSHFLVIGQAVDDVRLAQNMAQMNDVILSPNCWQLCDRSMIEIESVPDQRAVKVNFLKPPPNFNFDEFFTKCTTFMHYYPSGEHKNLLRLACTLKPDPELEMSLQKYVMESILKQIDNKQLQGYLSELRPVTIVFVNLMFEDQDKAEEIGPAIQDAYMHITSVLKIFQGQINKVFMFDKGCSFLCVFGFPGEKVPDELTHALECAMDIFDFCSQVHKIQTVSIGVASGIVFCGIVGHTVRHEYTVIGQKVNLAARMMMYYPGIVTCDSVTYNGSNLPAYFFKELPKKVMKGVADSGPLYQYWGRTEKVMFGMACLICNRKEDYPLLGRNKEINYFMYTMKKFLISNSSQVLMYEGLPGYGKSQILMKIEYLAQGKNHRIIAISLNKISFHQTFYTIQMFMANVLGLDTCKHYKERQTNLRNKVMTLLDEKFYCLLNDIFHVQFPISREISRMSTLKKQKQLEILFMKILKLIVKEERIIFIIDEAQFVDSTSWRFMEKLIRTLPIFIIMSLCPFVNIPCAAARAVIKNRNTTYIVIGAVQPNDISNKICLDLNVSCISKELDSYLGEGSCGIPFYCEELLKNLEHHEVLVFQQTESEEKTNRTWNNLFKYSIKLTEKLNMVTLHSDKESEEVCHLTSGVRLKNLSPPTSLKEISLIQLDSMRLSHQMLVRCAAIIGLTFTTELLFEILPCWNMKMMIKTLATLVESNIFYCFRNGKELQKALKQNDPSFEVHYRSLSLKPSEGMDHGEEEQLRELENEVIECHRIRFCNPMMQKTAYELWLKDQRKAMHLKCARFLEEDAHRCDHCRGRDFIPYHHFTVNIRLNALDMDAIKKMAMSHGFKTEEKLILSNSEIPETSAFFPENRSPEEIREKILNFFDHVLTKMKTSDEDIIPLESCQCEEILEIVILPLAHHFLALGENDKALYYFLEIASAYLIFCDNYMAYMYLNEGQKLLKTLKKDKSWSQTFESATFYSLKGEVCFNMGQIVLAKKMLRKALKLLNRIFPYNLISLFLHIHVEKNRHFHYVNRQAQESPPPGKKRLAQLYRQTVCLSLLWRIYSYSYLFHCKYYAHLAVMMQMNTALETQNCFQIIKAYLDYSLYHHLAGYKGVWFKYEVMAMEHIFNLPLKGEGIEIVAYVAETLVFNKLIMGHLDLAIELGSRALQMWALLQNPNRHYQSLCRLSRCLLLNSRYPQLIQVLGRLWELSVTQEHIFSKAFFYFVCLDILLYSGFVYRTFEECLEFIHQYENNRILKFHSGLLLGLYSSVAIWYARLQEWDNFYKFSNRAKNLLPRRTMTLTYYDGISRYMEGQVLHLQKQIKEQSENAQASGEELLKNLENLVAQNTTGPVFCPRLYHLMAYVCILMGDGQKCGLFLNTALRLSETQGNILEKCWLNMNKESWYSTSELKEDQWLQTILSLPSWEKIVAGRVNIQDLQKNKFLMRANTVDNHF

Row | SMILES | pIC50 [1] | toxicity [2]
1 | CC(CO)NC(=O)c1[nH]c2ncc(NS(=O)(=O)c3ccc(C(C)(C)C)cc3)cc2c1-c1ccccc1 (racemic) [Example 6, (±)-N-(2-Hydroxy-1-methylethyl)-5-(4-tert-butylphenylsulfonyl-amino)-3-phenyl-1H-pyrrolo[2,3-b]pyridine-2-carboxamide] | 7.43 | 
2 | Cc1cc2c(C(C)C)c(O)c(O)c(C=O)c2c(O)c1-c1c(C)cc2c(C(C)C)c(O)c(O)c(C=O)c2c1O [gossypol] |  | inherently toxic

Second part, led by results:

Row | pIC50 [1] | SMILES | toxicity [2]
3 | 7.19 | CC(C)(C)c1ccc(S(=O)(=O)Nc2cnc3[nH]c(C(=O)NCC4CCCO4)c(-c4ccccc4)c3c2)cc1 (racemic) [Example 10, (±)-N-(Tetrahydrofuran-2-ylmethyl)-5-(4-tert-butylphenylsulfonyl-amino)-3-phenyl-1H-pyrrolo[2,3-b]pyridine-2-carboxamide] | 
4 | 7.60 | O=C(N[C@H]1CCC[C@H]1O)c1[nH]c2ncc(NS(=O)(=O)c3ccc(C(F)(F)F)cc3)cc2c1-c1ccccc1 [Example 22, (1S,2R)—N-(2-Hydroxycyclopentyl)-3-phenyl-5-(4-trifluoromethyl-phenylsulfonylamino)-1H-pyrrolo[2,3-b]pyridine-2-carboxamide] | 
5 | 7.89 | CC(C)(C)c1ccc(S(=O)(=O)Nc2cnc3[nH]c(C(=O)N[C@H]4CCC[C@H]4O)c(-c4ccccc4)c3c2)cc1 [Example 8, (1S,2R)—N-(2-Hydroxycyclopentyl)-5-(4-tert-butylphenylsulfonyl-amino)-3-phenyl-1H-pyrrolo[2,3-b]pyridine-2-carboxamide] | 
